Assay results as given in patent publication US20110124653A1, “ARYL-SULPHONAMIDIC DIMERS AS METALLOPROTEASES INHIBITORS” (BRACCO IMAGING S.P.A., priority 2008, published 2011).

Key:
Experiment in all cases: MMP inhibition assay, fluorogenic substrate FS-6
Format in all cases: biochemical
Conditions in all cases: substrate FS-6 (Mca-Lys-Pro-Leu-Gly-Leu-Dpa-Ala-Arg-NH2), enzyme and inhibitor incubated 4 h at 25° C., triplicate
MMP-2 = molecular target: T1, MMP-2 (Homo sapiens, UniProt P08253)
T1 construct: Prof; Gillian Murphy (Department of Oncology, University of Cambridge, UK)
T1 sequence (P08253 110-660): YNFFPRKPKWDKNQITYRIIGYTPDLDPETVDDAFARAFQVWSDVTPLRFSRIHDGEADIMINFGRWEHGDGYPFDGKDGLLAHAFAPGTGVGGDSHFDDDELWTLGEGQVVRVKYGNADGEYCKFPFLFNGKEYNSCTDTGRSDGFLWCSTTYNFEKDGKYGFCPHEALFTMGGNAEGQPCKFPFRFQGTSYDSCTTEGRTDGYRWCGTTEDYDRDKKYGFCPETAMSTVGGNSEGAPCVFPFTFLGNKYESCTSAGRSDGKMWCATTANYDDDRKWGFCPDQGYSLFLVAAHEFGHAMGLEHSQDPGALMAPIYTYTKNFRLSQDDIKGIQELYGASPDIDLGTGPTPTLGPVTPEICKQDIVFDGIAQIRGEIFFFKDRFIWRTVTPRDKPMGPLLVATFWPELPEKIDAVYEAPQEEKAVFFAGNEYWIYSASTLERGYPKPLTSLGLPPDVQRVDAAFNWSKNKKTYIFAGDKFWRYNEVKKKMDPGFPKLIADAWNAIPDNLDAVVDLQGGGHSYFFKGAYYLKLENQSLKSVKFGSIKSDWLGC
Experimental: (§1) As reported therein, the inhibitory activity of the compounds of the invention was evaluated on the known fluorogenic substrate (Mca-Lys-Pro-Leu-Gly-Leu-Dpa-Ala-Arg-NH2), shortly referred to as FS-6 (see, as a reference, U. Neumann, Analytical Biochem. 2004, 328, 166-173).
(§2) Recombinant human pro-MMP-2 was supplied by Prof. Gillian Murphy (Department of Oncology, University of Cambridge, UK), while pro-MMP-13 and pro-MMP-14 were purchased from Calbiochem. […] Pro-MMP-14 was activated with trypsin 5 μg/ml for 15 min at 37° C. followed by soybean trypsin inhibitor (SBTI) 23 μg/ml. For assay measurements, the inhibitor stock solutions (DMSO, 100 mM) were further diluted, at seven different concentrations (0.01 nM-100 μM) for each MMP in the fluorimetric assay buffer (FAB: Tris 50 mM, pH=7.5, NaCl 150 mM, CaCl2 10 mM, Brij 35 0.05% and DMSO 1%). Activated enzyme (final concentration 2.9 nM for MMP-2, 1 nM for MMP-14, 0.33 nM for MMP-13) and inhibitor solutions were incubated in the assay buffer for 4 h at 25° C. After the addition of 200 μM solution of the fluorogenic substrate Mca-Lys-Pro-Leu-Gly-Leu-Dpa-Ala-Arg-NH2 (Bachem) (see, for a reference, Neumann, U.; Kubota, H.; Frei, K.; Ganu, V.; Leppert, D. Anal. Biochem. 2004, 328, 166) for all of the enzymes in DMSO (final concentration 2 μM), the hydrolysis was monitored every 15 sec. for 20 min recording the increase in fluorescence (λex=325 nm, λem=395 nm) using a Molecular Device SpectraMax Gemini XS plate reader.
(§3) The assays were performed in triplicate, in a total volume of 200 μl per well, in 96-well microtitre plates (Corning, black, NBS). Control wells lack inhibitor. The MMP inhibition activity was expressed in relative fluorescent units (RFU). Percent of inhibition was calculated from control reactions without the inhibitor. IC50 was determined using the formula: Vi/Vo=1/(1+[I]/IC50), where Vi is the initial velocity of substrate cleavage in the presence of the inhibitor at concentration [I] and Vo is the initial velocity in the absence of the inhibitor. Results were analyzed using SoftMax Pro software and GraFit software.

MMP-13 = MMP-13 (Homo sapiens, UniProt P45452)
Experimental: as §1, §2, §3

MMP-14 = molecular target: T2, MMP-14 (Homo sapiens, UniProt P50281)
T2 construct: purchased Calbiochem
Experimental: as §1, §2, §3

| IC50 (MMP-2) | IC50 (MMP-13) | IC50 (MMP-14) | SMILES |
| --- | --- | --- | --- |
| 3.7 nM | 2.4 nM | 31 nM | O=C(CCCNC(=O)c1cccc(C(=O)NCCCC(=O)NCC[C@@H](NS(=O)(=O)c2ccc(-c3ccccc3)cc2)C(=O)NO)c1)NCC[C@@H](NS(=O)(=O)c1ccc(-c2ccccc2)cc1)C(=O)NO [1b - example 16] |
| 3.6 nM | 1.93 nM | – | O=C(NCC[C@H](C(=O)NO)N(OCCOCCN1CCN(C(=O)c2cccc(C(=O)N3CCN(CCOCCON([C@H](CCNC(=O)OCc4ccccc4)C(=O)NO)S(=O)(=O)c4ccc(-c5ccccc5)cc4)CC3)c2)CC1)S(=O)(=O)c1ccc(-c2ccccc2)cc1)OCc1ccccc1 [2b - example 17] |
